Holding throughout (assay type): functional
Experiment [1] has as its system Haemophilus influenzae. The experiment in a line: Antibacterial activity against Haemophilus influenzae 2762.
Experiment [2] has as its system Staphylococcus aureus. Description: Antibacterial activity against Staphylococcus aureus 29213.
The subject of experiment [3] is Staphylococcus aureus. The experiment in a line: Antibacterial activity against Staphylococcus aureus 33591.
Experiment [4] concerns Staphylococcus epidermidis. Description: Antibacterial activity against Staphylococcus epidermidis 14990.
For experiment [5], the system named is Staphylococcus epidermidis. The experiment in a line: Antibacterial activity against Staphylococcus epidermidis f50654.
In experiment [6] the test system is Enterococcus faecalis. The experiment in a line: Antibacterial activity against Enterococcus faecalis 29212.
The subject of experiment [7] is Enterococcus faecalis. The experiment in a line: Antibacterial activity against Enterococcus faecalis bc11148-2.
A further experiment deals with Streptococcus pyogenes. Description: Antibacterial activity against Streptococcus pyogenes 8668.
Experiment [8] relates to Streptococcus pneumoniae. The experiment in a line: Antibacterial activity against Streptococcus pneumoniae 49619.
In experiment [9] the test system is Streptococcus pneumoniae. Description: Antibacterial activity against Streptococcus pneumoniae 297-749.
Experiment [10] deals with Streptococcus pneumoniae. Description: Antibacterial activity against Streptococcus pneumoniae 280-962.
The subject of experiment [11] is Streptococcus pneumoniae. Description: Antibacterial activity against Streptococcus pneumoniae Erm 6849.
Experiment [12] has as its system Streptococcus pneumoniae. Description: Antibacterial activity against Streptococcus pneumoniae Mef 5654.
Experiment [13] relates to Streptococcus pneumoniae. The experiment in a line: Antibacterial activity against Streptococcus pneumoniae Mef S 3427.
Experiment [14] concerns Haemophilus influenzae. Description: Antibacterial activity against Haemophilus influenzae 49247.

2 compounds from ChEMBL document CHEMBL1138190, “Synthesis and antibacterial activity of novel C12 vinyl ketolides” (J Med Chem, 2006) can be followed below.

Each structure is given as a SMILES string. In brackets after ≈: the same amount, converted by molar mass.

For `C=C[C@]12OC(=O)N(CCCCn3cc(Cl)c4ncccc43)[C@@H]1[C@@H](C)C(=O)[C@H](C)C[C@@](C)(OC)[C@H](O[C@@H]1O[C@H](C)C[C@H](N(C)C)[C@H]1O)[C@@H](C)C(=O)[C@@H](C)C(=O)O[C@@H]2CC`, the MIC with Haemophilus influenzae [1] is 0.78 µg/mL (≈ 0.938 µM); with Staphylococcus aureus [2], 0.2 µg/mL (≈ 0.241 µM); with Staphylococcus aureus [3], over 50 µg/mL; in experiment [4] it was 0.1 µg/mL (≈ 0.12 µM); in experiment [5], 0.1 µg/mL (≈ 0.12 µM); against Enterococcus faecalis [6] it was 0.1 µg/mL (≈ 0.12 µM). For the same compound, the MIC in the experiment on Enterococcus faecalis [7] is 1.56 µg/mL (≈ 1.88 µM); against Streptococcus pyogenes it was at most 0.05 µg/mL; in the experiment on Streptococcus pneumoniae [8] it was at most 0.05 µg/mL; against Streptococcus pneumoniae [9], at most 0.05 µg/mL; in the experiment on Streptococcus pneumoniae [10] it was at most 0.05 µg/mL; in the experiment with Streptococcus pneumoniae [11], 3.13 µg/mL (≈ 3.76 µM). Moreover, the figures for the MIC in the experiment on Streptococcus pneumoniae [12], in the experiment with Streptococcus pneumoniae [13] and with Haemophilus influenzae [14] were 0.78 µg/mL (≈ 0.938 µM), 0.1 µg/mL (≈ 0.12 µM) and 3.13 µg/mL (≈ 3.76 µM), respectively.

For the compound `C=C[C@]12OC(=O)N(CCCCn3cnc(-c4cccnc4)c3)[C@@H]1[C@@H](C)C(=O)[C@H](C)C[C@@](C)(OC)[C@H](O[C@@H]1O[C@H](C)C[C@H](N(C)C)[C@H]1O)[C@@H](C)C(=O)[C@@H](C)C(=O)O[C@@H]2CC`, the MIC was 1.56 µg/mL (≈ 1.89 µM) in the experiment with Haemophilus influenzae [1]; 0.1 µg/mL (≈ 0.121 µM) in the experiment on Staphylococcus aureus [2]; over 50 µg/mL in the experiment on Staphylococcus aureus [3]; 0.2 µg/mL (≈ 0.243 µM) in experiment [4]; 0.2 µg/mL (≈ 0.243 µM) in experiment [5]; 0.1 µg/mL (≈ 0.121 µM) with Enterococcus faecalis [6]. The MIC is 0.4 µg/mL (≈ 0.485 µM) in the experiment with Enterococcus faecalis [7]; at most 0.05 µg/mL with Streptococcus pyogenes; at most 0.05 µg/mL against Streptococcus pneumoniae [8]; at most 0.05 µg/mL in the experiment with Streptococcus pneumoniae [9]; at most 0.05 µg/mL in the experiment with Streptococcus pneumoniae [10]; 0.2 µg/mL (≈ 0.243 µM) against Streptococcus pneumoniae [11]. The MIC came to 0.4 µg/mL (≈ 0.485 µM) against Streptococcus pneumoniae [12], 0.1 µg/mL (≈ 0.121 µM) with Streptococcus pneumoniae [13] and 3.13 µg/mL (≈ 3.8 µM) in the experiment on Haemophilus influenzae [14].
